Laboratory results: patent US20050197274A1, “Solid laundry detergent granules with polyanionic ammonium surfactant and non-aqueous binder” (Unilever Home & Personal Care USA, Division of Conopco, Inc., priority 2004, published 2005)

Assay: Water solubility: appearance and pH of the aqueous mix while acid and polyamine are combined
Assay type: physicochemical
Details: TEPA 2.0 g in water 94.0 g, before LAS acid
Source text: As PAAS began forming, the solution became hazy. Upon further addition of the LAS acid, the hazy solution became a dispersion. Upon standing for hours, the dispersion formed a layer of sediment at the bottom of the beaker. Even a very diluted formulation (such as below 0.1%) was hazy. […] The solution was clear at the all time over the entire pH range, leading to the conclusion that Na-LAS was fully ionized or disassociated. […] Example 1 was repeated, except that fatty acid was used in place of LAS acid.

Observations (appearance): Clear
Structure (SMILES): NCCNCCNCCNCCN [TEPA, Tetraethylenepentamine]
